Tests used:
[1] = test system: INS-1 β cells; assay: GC7 treatment of transfected INS-1 cells, immunoblot of cell extracts; type: cell-based, rat; settings: increasing GC7 concentrations, FIG. 1E
Experimental: (§1) Cell culture, transfection and DHS inhibition—Human 293T and rat INS-1(832/13) β cells were cultured as described. Cells were transiently transfected with plasmids encoding EGFP-eIF5A, EGFP-eIF5A(K50A) and EGFP-DHS constructs using Lipofectamine 2000 (Invitrogen) for 16 hours before cell extraction or immunofluorescence analysis. The DHS inhibitor GC7 (Biosearch Technologies) was prepared and used in cell culture as previously described.
(§2) Antibodies and immunoblotting—The rabbit polyclonal antibody IU-88 against hypusinated human eIF5A was generated in rabbits using the synthetic hypusine-containing peptide C-Ahx-STSKTG[hypusine]HGHAKV-amide (SEQ ID NO. 1) by contract to 21st Century Biochemicals. Monoclonal mouse pan-anti-eIF5A antibody was from BD Biosciences and anti-actin antibody was from MP Biomedicals. Immunoblot analysis was visualized using a LiCor Odyssey fluorescence system following electrophoresis on a 4-20% SDS polyacrylamide gel. Primary antibodies were diluted 1:1500 (IU-88) and 1:10,000 (anti-pan-eIF5A).
Referring now to FIG. 1E.

[2] = target: T1, DHS (Homo sapiens, UniProt P49366); assay: in vitro hypusination reaction of recombinant eIF5A with DHS, DHH, spermidine and GC7, immunoblot read-out; type: biochemical
T1 construct: His6 (N); made in house; host or cells: E. coli
T1 sequence (P49366 1-369): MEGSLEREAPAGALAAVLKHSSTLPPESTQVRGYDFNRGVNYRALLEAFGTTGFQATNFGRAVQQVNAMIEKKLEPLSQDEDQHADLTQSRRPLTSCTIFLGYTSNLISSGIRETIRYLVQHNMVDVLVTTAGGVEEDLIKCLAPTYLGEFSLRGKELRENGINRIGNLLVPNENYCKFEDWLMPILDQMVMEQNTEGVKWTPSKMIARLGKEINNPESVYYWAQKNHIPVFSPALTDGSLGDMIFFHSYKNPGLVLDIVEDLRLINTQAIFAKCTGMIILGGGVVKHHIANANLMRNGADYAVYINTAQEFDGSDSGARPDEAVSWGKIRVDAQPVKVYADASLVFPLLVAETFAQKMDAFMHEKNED
From the text: Reactions in vitro—For in vitro experiments, eIF5A protein was purified from E. coli as a GST fusion, after which the GST tag was proteolytically removed. DHS protein was purified from E. coli as an N-terminal His6 fusion. Purified human DHH protein was purchased from OriGene. The hypusination reactions in vitro proceeded as previously published.
as §2
In order to determine if IU-88 specifically recognizes the deoxyhypusine or hypusine forms of eIF5A, immunoblots of reactions in which recombinant human eIF5A was incubated in vitro with DHS, DHH, spermidine, and/or the potent DHS inhibitor GC7 were performed. Referring now to FIG. 1A. […] Increasing the DHS concentration and time of incubation led to increasing eIF5A signal intensity in these studies (data not shown).

[3] = test system: 293T cells; assay: GC7 treatment of transfected 293T cells, immunoblot of cell extracts; type: cell-based, human
Experimental: as §1, §2
Referring now to FIG. 1D. When 293T cells are transfected with GFP-eIF5A, a weak but detectable signal corresponding to GFP-eIF5A is observed using IU-88 (lane 1).

NCCCCCCCN=C(N)N [GC7]
GFP-eIF5A signal observed with IU-88 [1]: reduces the GFP-eIF5A signal observed with IU-88
signal observed with the pan-anti-eIF5A antibody [1]: also reduces the signal observed with the pan-anti-eIF5A antibody
eIF5A signal intensity (IU-88 immunoblot) ([2]; co-incubation with 300 nM GC7, FIG. 1A lanes 3 and 6): reduction in eIF5A signal intensity
inhibition of eIF5A signal intensity (IU-88 immunoblot) ([2]; higher concentrations of GC7 up to 10 μM, FIG. 1B): near-complete inhibition
GFP-eIF5A signal detected by IU-88 ([3]; 293T cells co-transfected with GFP-DHS, GC7, FIG. 1D lanes 5 and 6): corresponding decrease in the presence of GC7
GFP-eIF5A signal detected by IU-88 ([3]; 293T cells transfected with GFP-eIF5A, increasing concentrations of GC7, FIG. 1D lanes 2 and 3): signal decreases further
endogenous eIF5A signal recognized by IU-88 ([3]; 293T cells, increasing GC7): observed to decrease with increasing GC7

Source: patent US20150119476A1, “DEVELOPMENT, CHARACTERIZATION, AND USE OF AN ANTI-HYPUSINATED eIF5A ANTIBODY TO DIAGNOSE DIABETES” (Indiana University Research and Technology Corp., priority 2013, published 2015)
